US10023591B2, “Heterocyclic derivatives and use thereof” (C&C RESEARCH LABORATORIES, priority 2014, dated 2018)

Columns and labels:
[1] = system: NCI-N87 stomach cancer cell line; experiment: Cell growth inhibition assay, NCI-N87 (CellTiter-Glo); assay type: cell-based; conditions: Homo sapiens; NCI-N87, 5,000 cells/well, 96 hours
Procedure, shortened: (§1)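 Cells seeded at 3,000 (DU-145), 5,000 (NCI-N87) or 10,000 (LNCaP, MDA-MB-468) per well, LNCaP in medium with 10 ng/mL IL-6. Serially diluted compound for 96 h at 37 °C (MDA-MB-468 in air, others 5% CO2); viability by CellTiter-Glo luminescence versus 0.1% DMSO wells.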

[2] = system: STAT3; experiment: STAT3 reporter gene assay (luciferase), LNCaP stable cell line pSTAT3-TA-luc, IL-6 stimulation; assay type: cell-based, human; conditions: Homo sapiens
Procedure, shortened: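 LNCaP cells stably carrying pSTAT3-TA-luc were plated 24 h in 3% DCC-FBS medium, then given compound followed by IL-6 (10 ng/mL final) for 24 h at 37 °C. Luciferase was read from lysates, with CellTiter-Glo viability on a duplicate plate. Stimulated 0.1% DMSO wells served as uninhibited control.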

[3] = system: DU-145 prostate cancer cell line; experiment: Cell growth inhibition assay, DU-145 (CellTiter-Glo); assay type: cell-based; conditions: Homo sapiens; DU-145, 3,000 cells/well, 96 hours
Procedure, shortened: as §1

[4] = system: STAT1; experiment: STAT1 reporter gene assay (luciferase), U2OS stable cell line pGL4-STAT1-TA-luc, IFN-γ stimulation; assay type: cell-based, human; conditions: Homo sapiens, IFN-γ 50 ng/mL, 8 hours, read-out: IC50 (μM) pSTAT1
Procedure, shortened: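 U2OS cells stably carrying a STAT1-driven luciferase reporter were treated with serially diluted compounds plus IFN-γ (50 ng/mL final) for 8 h at 37 °C in 10% FBS medium. Luciferase read after lysis; parallel plate assessed for cytotoxicity by CellTiter-Glo.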

[5] = system: MDA-MB-468 breast cancer cell line; experiment: Cell growth inhibition assay, MDA-MB-468 (CellTiter-Glo); assay type: cell-based; conditions: Homo sapiens, MDA-MB-468, 96 hours
Method: The inhibitory effects of the compounds of the present invention against the growth of cancer cells were evaluated as shown below. The cancer cell lines including prostate cancer cell lines (LNCaP, DU-145), stomach cancer cell line (NCI-N87), and breast cancer cell lines (MDA-MB-468) were cultured under the protocol provided by each supplier. A medium supplemented with 10 ng/mL of IL-6 was used for LNCaP, a prostate cancer cell line, when treated with a drug. Each type of cells to be used in experiments was sub-cultured in a 96-well plate by counting the exact number of cells using Tali™ Image-based Cytometer (Life Technologies). In a 96-well plate, DU-145 was employed with 3,000 cells/well; NCI-N87 was employed with 5,000 cells/well; and LNCaP and MDA-MB-468 were employed with 10,000 cells/well. The cells were treated with the compounds listed in Examples which were diluted in various concentrations. Upon completion of the compounds treatment, LNCaP, DU-145, NCI-N87 cells were cultured at 37° C. under 5% CO2 for 96 hours, and MDA-MB-468 cells were cultured at 37° C. in air for 96 hours. Subsequently, the cells were observed under microscope and drug precipitation and particular findings were investigated and recorded. And then, the 96-well plate was placed at room temperature for 30 minutes, added with 20 pt/well of CellTiter-Glo solution (Cat No. G7573, Promega) and shaken for 10 minutes, followed by being subjected to the measurement using PHERAstar™ microplate reader (BMG LABTECH) according to the supplier's general luminometer protocol. Wells where only culture liquid added without cell plating were used as a negative control, whereas wells where culture liquid containing 0.1% DMSO instead of the compounds listed in Examples were used as a positive control.

[6] = system: LNCaP prostate cancer cell line; experiment: Cell growth inhibition assay, LNCaP (CellTiter-Glo); assay type: cell-based; conditions: Homo sapiens; LNCaP, 10,000 cells/well, medium with 10 ng/mL IL-6, 96 hours
Procedure, shortened: as §1

Compound CC(C)(c1ccc2sc(C(=O)Nc3cc(Cl)nc(Oc4ccc(Cl)cc4)c3)cc2c1)S(C)(=O)=O [Example 64, N-(2-chloro-6-(4-chlorophenoxy)pyridin-4-yl)-5-(2-(methylsulfonyl)propan-2-yl)benzo[b]thiophene-2-carboxamide] has an IC50 [1] of 0.034 µM, an IC50 [2] of 0.021 µM and an IC50 [3] of 0.0057 µM. For the same compound, the IC50 [4] was greater than 50 µM, the IC50 [5] was 0.0065 µM and the IC50 [6] was 0.013 µM.

With CC(C)(c1ccc2sc(C(=O)Nc3cc(Cl)nc(Oc4ccsc4Cl)c3)cc2c1)S(C)(=O)=O [Example 121, N-(2-chloro-6-((2-chlorothiophen-3-yl)oxy)pyridin-4-yl)-5-(2-(methylsulfonyl)propan-2-yl)benzo[b]thiophene-2-carboxamide] the IC50 [1] was 0.15 µM, the IC50 [2] was 0.027 µM and the IC50 [4] was greater than 50 µM. The IC50 [5] was 0.027 µM.

Work on CC(C)(c1ccc2sc(C(=O)Nc3cc(Cl)nc(OCc4ccc(Cl)cc4)c3)cc2c1)S(C)(=O)=O [Example 86, N-(2-chloro-6-((4-chlorobenzyl)oxy)pyridin-4-yl)-5-(2-(methylsulfonyl)propan-2-yl)benzo[b]thiophene-2-carboxamide] yielded an IC50 [1] of 0.15 µM, an IC50 [2] of 0.089 µM and an IC50 [4] greater than 50 µM. For the same compound, the IC50 [5] was 0.024 µM.

CC(C)(c1ccc2sc(C(=O)Nc3cc(Cl)nc(Oc4cccc(OC(F)(F)F)c4)c3)cc2c1)S(C)(=O)=O [Example 81, N-(2-chloro-6-(3-(trifluoromethoxy)phenoxy)pyridin-4-yl)-5-(2-(methylsulfonyl)propan-2-yl)benzo[b]thiophene-2-carboxamide] showed an IC50 [1] of 0.033 µM, an IC50 [2] of 0.005 µM and an IC50 [4] greater than 50 µM. For the same compound, the IC50 [5] was 0.0038 µM.

In the case of Cc1sccc1Oc1cc(NC(=O)c2cc3cc(C(C)(C)S(C)(=O)=O)ccc3s2)cc(Cl)n1 [Example 115, N-(2-chloro-6-((2-methylthiophen-3-yl)oxy)pyridin-4-yl)-5-(2-(methylsulfonyl)propan-2-yl)benzo[b]thiophene-2-carboxamide], the IC50 [1] is reported as 0.14 µM, the IC50 [2] is reported as 0.019 µM and the IC50 [4] is reported as greater than 50 µM. It also gave an IC50 [5] of 0.021 µM.
